The source made the active and inactive calls.
Assays:
[1] = molecular target: E3 ubiquitin-protein ligase Mdm2 (Homo sapiens, UniProt Q00987); experiment: enhancers of MDM2-luciferase reporter signal, concentration-effect titration, project on inhibitors of MDM2 ubiquitin ligase, cellular assay, luminescent readout, 384-well plate format (AID 1394); assay type: functional;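 note: MDM2 E3 inhibitors raise luminescence so EC50 is for signal enhancement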
[2] = molecular target: T1, Heat shock factor protein 1 (Mus musculus, UniProt P38532); experiment: inhibition of MG132-induced HSE-luciferase signal, confirmation, cell-based, NIH3T3, luminescence, dose retest (AID 2382); assay type: functional;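 note: NIH3T3 fibroblasts with HSF1-driven luciferase reporter stressed by proteasome inhibitor MG132; luminescence from HSF1-driven luciferase expression after 8 hours of MG132 stress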
T1 sequence (P38532 whole entry): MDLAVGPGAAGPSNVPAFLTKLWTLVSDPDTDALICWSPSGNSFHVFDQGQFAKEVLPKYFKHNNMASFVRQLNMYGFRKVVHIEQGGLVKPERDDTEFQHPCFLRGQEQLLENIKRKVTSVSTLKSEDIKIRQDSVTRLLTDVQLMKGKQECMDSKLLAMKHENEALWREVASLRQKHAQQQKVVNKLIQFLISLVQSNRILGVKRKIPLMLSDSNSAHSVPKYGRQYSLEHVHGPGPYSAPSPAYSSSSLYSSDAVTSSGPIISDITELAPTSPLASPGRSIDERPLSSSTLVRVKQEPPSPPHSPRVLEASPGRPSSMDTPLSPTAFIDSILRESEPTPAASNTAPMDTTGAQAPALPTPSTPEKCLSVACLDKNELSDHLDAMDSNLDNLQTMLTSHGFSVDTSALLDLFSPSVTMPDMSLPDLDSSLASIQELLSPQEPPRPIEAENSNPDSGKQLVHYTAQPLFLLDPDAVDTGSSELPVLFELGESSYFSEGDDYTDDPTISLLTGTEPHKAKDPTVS

Vero = experiment: cells; assay type: functional; settings: Chlorocebus sabaeus
Paired box protein Pax-8 = Paired box protein Pax-8 (Homo sapiens, UniProt Q06710); experiment: inhibitors of PAX8-driven TPO luciferase reporter, dose response, RMG-I cells, cherry-pick (AID 687027); assay type: functional, cell-based;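 note: luciferase reporter driven by Pax8 target thyroperoxidase promoter measured by SteadyGlo luminescence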
[3] = molecular target: T2, Tyrosine-protein phosphatase non-receptor type 7 (Homo sapiens, UniProt P35236); experiment: inhibitors of human HePTP phosphatase, […], biochemical, absorbance, leukemia target (AID 521); assay type: functional
T2 sequence (P35236 whole entry): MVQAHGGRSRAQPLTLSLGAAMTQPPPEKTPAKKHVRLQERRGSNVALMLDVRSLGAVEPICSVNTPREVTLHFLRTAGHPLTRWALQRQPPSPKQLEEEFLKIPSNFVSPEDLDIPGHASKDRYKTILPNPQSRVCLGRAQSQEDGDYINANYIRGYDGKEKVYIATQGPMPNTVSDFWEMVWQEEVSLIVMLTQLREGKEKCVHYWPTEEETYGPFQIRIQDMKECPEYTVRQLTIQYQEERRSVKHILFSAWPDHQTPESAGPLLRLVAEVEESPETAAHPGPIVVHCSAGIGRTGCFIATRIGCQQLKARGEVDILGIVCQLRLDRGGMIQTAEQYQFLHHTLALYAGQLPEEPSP

Chain of E3 ubiquitin-protein ligase Mdm2 (Q00987 whole entry): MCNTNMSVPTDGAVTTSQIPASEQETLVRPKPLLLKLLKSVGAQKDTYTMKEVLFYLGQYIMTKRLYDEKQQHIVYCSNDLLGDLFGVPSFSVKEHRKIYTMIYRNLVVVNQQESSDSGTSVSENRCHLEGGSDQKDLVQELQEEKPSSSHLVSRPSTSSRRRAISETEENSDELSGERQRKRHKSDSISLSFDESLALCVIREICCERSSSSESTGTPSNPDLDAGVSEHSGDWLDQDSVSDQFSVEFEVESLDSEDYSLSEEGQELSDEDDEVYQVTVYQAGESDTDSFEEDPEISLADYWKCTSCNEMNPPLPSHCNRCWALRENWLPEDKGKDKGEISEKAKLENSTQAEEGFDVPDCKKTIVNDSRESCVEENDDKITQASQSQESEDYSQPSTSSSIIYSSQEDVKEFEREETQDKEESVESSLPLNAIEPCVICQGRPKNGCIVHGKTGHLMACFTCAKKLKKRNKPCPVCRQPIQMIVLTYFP
Chain of Paired box protein Pax-8 (Q06710 whole entry): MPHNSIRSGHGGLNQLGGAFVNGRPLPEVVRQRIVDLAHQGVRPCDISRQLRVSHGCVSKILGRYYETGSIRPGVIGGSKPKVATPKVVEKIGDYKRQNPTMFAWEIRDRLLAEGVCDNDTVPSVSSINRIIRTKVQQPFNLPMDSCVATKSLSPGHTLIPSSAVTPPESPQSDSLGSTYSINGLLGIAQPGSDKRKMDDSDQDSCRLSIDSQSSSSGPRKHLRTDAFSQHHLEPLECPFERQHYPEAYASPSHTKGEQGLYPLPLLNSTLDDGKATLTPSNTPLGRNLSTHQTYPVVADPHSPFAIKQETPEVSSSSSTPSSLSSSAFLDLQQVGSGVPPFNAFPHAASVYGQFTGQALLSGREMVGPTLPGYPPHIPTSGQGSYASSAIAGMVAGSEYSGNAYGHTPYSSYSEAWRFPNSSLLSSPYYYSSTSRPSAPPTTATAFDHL

**Q.** `COc1cc(/C=C2\COC/C(=C\c3cc(OC)c(OC)c(OC)c3)C2=O)cc(OC)c1OC` was tested. Which EC50 [1] did it give?
**A.** The EC50 was 182 µM (active).

**Q.** What about the EC50 [2] of the same compound?
**A.** Its EC50 is > 195 µM (not active).

**Q.** And the CC50 (Vero)?
**A.** The CC50 was 2.07 µM (active).

**Q.** What about the AC50 (Paired box protein Pax-8) of the same compound?
**A.** The AC50 was 1.56 µM (active).

**Q.** Which IC50 [3] does the source give for `O=C(NCc1cccc(C(F)(F)F)c1)C1CCCN(c2ncccn2)C1` (stereo not given) here?
**A.** Its IC50 is > 100 µM (not active).

— ChEMBL document CHEMBL1201862, “PubChem BioAssay data set” (2004)
